According to US20250360205A1, “NOD1 MODULATORS AND USES THEREOF” (Academia Sinica, priority 2022, published 2025):

Molecular target: T1, NOD1 (Homo sapiens, UniProt Q9Y239)
T1 construct: host or cells: HEK-Blue hNOD1 cells (HEK293-derived, with NF-κB-inducible SEAP reporter)
T1 sequence (Q9Y239 1-953): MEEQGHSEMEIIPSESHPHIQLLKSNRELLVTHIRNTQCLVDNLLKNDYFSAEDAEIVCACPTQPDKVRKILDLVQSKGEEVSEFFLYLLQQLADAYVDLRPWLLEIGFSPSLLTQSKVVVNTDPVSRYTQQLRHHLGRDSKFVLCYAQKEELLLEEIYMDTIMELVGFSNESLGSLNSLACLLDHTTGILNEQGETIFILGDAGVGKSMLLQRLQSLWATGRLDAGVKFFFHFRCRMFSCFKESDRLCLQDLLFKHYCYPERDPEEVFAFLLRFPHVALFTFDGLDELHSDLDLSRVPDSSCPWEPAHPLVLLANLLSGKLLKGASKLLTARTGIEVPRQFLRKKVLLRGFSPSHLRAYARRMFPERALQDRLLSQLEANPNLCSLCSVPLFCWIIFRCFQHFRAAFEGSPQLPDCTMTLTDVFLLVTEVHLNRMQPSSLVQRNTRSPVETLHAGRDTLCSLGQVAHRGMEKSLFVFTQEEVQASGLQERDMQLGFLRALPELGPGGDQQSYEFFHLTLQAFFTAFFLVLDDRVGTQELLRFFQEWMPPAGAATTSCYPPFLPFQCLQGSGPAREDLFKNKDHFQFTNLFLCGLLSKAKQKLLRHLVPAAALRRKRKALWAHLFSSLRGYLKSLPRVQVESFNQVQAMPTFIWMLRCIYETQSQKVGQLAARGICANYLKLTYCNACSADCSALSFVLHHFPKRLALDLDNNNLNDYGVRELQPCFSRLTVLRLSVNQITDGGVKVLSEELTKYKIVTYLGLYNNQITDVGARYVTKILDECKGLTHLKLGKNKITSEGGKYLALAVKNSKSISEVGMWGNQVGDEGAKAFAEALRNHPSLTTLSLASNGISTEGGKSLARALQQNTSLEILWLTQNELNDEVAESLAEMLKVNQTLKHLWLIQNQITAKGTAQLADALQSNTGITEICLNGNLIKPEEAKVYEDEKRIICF
Assay: NOD1-induced NF-κB activation assay (SEAP reporter) in HEK-Blue hNOD1 cells
Type: cell-based
Settings: 16 h; for NOD1 stimulation potency (NF-κB activity): 0.1 μM, FIG. 1, relative to iE-DAP, C12-iE-DAP, Tri-DAP
Method: Measurement of NOD1-induced NF-κB Activation Assay
HEK-Blue™ hNOD1 Cells (Invivogen; San Diego, CA, U.S.) were cultured in accordance with the manufacturer's instructions. HEK-Blue™ hNOD1 Cells was assayed for NF-κB transcriptional activity changes upon incubation (3.6×10^5 cells/mL) with iE-DAP, C12-iE-DAP, Tri-DAP (Invivogen, San Diego, CA, U.S.) and other NOD1 agonistic compounds (0.1-10 μM) for 16 h. Secreted embryonic alkaline phosphatase (SEAP) activity was determined in the supernatant in accordance with the manufacturer's instructions. An amount of 20 μL of SEAP-inducer compound or negative control was added to 180 μL of cells in HEK-Blue™ detection medium and incubated at 37° C. for 16 h. Absorbance was measured on a SpectraMax M5 (Molecular Devices, Sunnyvale, CA, U.S.) at 640 nm.

| NOD1 stimulation potency (NF-κB activity) | fold increase of NF-κB activity (1 μM, FIGS. 2 and 3) [fold] | Compound |
| --- | --- | --- |
| decreased dramatically | – | COc1ccc(CC(=O)NC(C)C(=O)NC(CCC(=O)NC(CO)CCCC(N)C(=O)O)C(=O)O)cc1 (stereo not drawn) [Compound 14f] |
| – | 20 | C[C@H](N)C(=O)N[C@H](CCC(=O)N[C@H](CO)CCC[C@@H](N)C(=O)O)C(=O)O [Compound 6] |
| decreased dramatically | – | CC(NC(=O)Cc1ccc(-c2ccccc2)cc1)C(=O)NC(CCC(=O)NC(CO)CCCC(N)C(=O)O)C(=O)O (stereo not drawn) [Compound 14h] |
